According to BindingDB's records for doi:10.1021/jm00079a012 (Smithkline Beecham Pharmaceuticals, 1992):

Assays:
[1] = target: Delta(24)-sterol reductase DHCR24 (Rattus norvegicus); experiment: Compound was tested for the inhibition of delta24-sterol reductase
[2] = target: Delta(24)-sterol reductase DHCR24 (Rattus norvegicus); experiment: as above; remark: listed apart in the source

Row | Ki [1] | Ki [2] | SMILES
1 | 7 nM | – | C[C@H](CCC(=N)N)C1CC[C@@]2(C)C3=C(CC[C@]12C)[C@@]1(C)CC[C@H](O)C(C)(C)C1CC3 (stereo partly drawn)
2 | 4 nM | – | CC(C)[S+](C)CC[C@@H](C)C1CCC2C3CC=C4C[C@@H](O)CC[C@]4(C)C3CC[C@@]21C (stereo partly drawn)
3 | – | 12 nM | C[C@H](CCC(N)=[N+](C)C)C1CC[C@@]2(C)C3=C(CC[C@]12C)[C@@]1(C)CC[C@H](O)C(C)(C)C1CC3 (stereo partly drawn)
